Experiments:
S1P3 = molecular target: T1, S1P3 (Homo sapiens, UniProt Q99500); assay: Receptor [35S] GTPγS binding assay (S1P3 GTPγS); assay type: biochemical; conditions: membranes from EDG3-Ga15-bla HEK293T cells; read-out: S1P3 GTPgS (EC50)
T1 construct: expressed in transfected cells; host or cells: HEK293T cells (EDG3-Ga15-bla), membranes
Procedure: (§1) The compounds of Formula (I), Formula (II), Formula (III), and Formula (IV), and salts thereof in which R2 is —OH, engage their biological targets (e.g. S1P1) after bioactivation through phosphorylation of the alcohol to provide an active phosphate ester compound of Formula (I), Formula (II), Formula (III), and Formula (IV), or salts thereof, in which R2 is —OP(O)(OH)2. In vitro characterization of biological activity of the examples was conducted on synthetically prepared samples of the phosphorylated compounds.
(§2) Receptor [^35S] GTPyS Binding Assays: (S1P1 GTPyS/S1P3 GTPyS)
(§3) Compounds were loaded in a 384 Falcon v-bottom plate (0.5 μl/well in a 11 point, 3-fold dilution). Membranes prepared from S1Pi/CHO cells or EDG3-Ga15-bla HEK293T cells (EDG3 equivalent S1P3) were added to the compound plate (40 μl/well, final protein 3 μg/well) with MULTIDROP®. [^35S] GTP (1250 Ci/mmol, Perkin Elmer) was diluted in assay buffer: 20 mM HEPES, pH7.5, 10 mM MgCl2, 150 mM NaCl, 1 mM EGTA (ethylene glycol tetraacetic acid), 1 mM DTT (Dithiothreitol), 10 μM GDP, 0.1% fatty acid free BSA, and 10 μg/ml Saponin to 0.4 nM. 40 μl of the [^35S] GTP solution was added to the compound plate with a final concentration of 0.2 nM. The reaction mixture was kept at room temperature for 45 min. At the end of incubation, all the mixtures in the compound plate were transferred to Millipore 384-well FB filter plates via the VELOCITY 11® Vprep liquid handler. The filter plate was washed with water 4 times by using the manifold Embla plate washer and dried at 60° C. for 45 min. MicroScint 20 scintillation fluid (30 μl) was added to each well for counting on the Packard TOPCOUNT®. ECso is defined as the agonist concentration that corresponds to 50% of the Ymax (maximal response) obtained for each individual compound tested.
(§4) A smaller value for GTPyS S1 P1 EC50 value indicated greater activity for the compound in the GTPyS S1P1 binding assay. A larger value for the GTPyS S1 P3 EC50 value indicated less activity in the GTPyS S1 P3 binding assay (Table A).

S1P1 = molecular target: T2, S1P1 (Homo sapiens, UniProt P21453); assay: Receptor [35S] GTPγS binding assay (S1P1 GTPγS); assay type: biochemical; conditions: membranes from S1P1/CHO cells; for S1P1 GTPgS (Ymax): maximal response; for EC50: phosphorylated compounds, read-out: S1P1 GTPgS (EC50)
T2 construct: expressed in transfected cells; host or cells: CHO cells (S1P1/CHO), membranes
T2 sequence (P21453 whole entry): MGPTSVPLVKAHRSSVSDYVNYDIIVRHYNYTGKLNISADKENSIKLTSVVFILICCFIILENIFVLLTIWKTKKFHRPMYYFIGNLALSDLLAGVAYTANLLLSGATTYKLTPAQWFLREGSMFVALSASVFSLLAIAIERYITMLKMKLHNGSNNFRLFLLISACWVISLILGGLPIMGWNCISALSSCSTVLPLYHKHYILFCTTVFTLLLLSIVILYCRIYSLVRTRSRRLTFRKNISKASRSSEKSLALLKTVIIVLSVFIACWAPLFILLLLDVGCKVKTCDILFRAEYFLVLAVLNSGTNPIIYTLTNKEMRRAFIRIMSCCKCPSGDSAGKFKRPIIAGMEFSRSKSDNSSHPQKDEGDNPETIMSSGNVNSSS
Procedure: as §1, §2, §3, §4

T1 sequence (Q99500 whole entry): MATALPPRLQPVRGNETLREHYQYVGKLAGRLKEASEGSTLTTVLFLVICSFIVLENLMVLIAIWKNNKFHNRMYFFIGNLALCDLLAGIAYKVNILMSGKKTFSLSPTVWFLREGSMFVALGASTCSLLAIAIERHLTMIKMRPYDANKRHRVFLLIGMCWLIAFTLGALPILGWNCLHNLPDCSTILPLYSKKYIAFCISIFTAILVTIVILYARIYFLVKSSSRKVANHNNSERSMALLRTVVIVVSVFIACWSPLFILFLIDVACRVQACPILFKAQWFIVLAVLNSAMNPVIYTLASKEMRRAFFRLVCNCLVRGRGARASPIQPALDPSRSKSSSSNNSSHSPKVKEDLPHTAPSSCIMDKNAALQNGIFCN

## CCCCNc1nc2c(s1)-c1ccc([C@H]3CC[C@](N)(COP(=O)(O)O)C3)cc1CC2 [Example 32, ((1R,3S)-1-amino-3-(2-(butylamino)-4,5-dihydronaphtho[2,1-d]thiazol-7-yl)cyclopentyl)methyl dihydrogen phosphate]
S1P3
  EC50: > 3 µM
S1P1
  S1P1 GTPgS (Ymax): 49%
  EC50: 0.133 µM

## CCCCCCOc1nc2c(s1)-c1ccc([C@H]3CC[C@](N)(COP(=O)(O)O)C3)cc1CC2 [Example 30, ((1R,3S)-1-amino-3-(2-(hexyloxy)-4,5-dihydronaphtho[2,1-d]thiazol-7-yl)cyclopentyl) methyl dihydrogen phosphate]
S1P3
  EC50: > 3 µM
S1P1
  S1P1 GTPgS (Ymax): 102%
  EC50: 0.012 µM

## CCCCCCCc1nc2c(s1)-c1ccc([C@H]3CC[C@](N)(COP(=O)(O)O)C3)cc1CC2 [Example 27]
S1P3
  EC50: > 3 µM
S1P1
  S1P1 GTPgS (Ymax): 98%
  EC50: 0.01 µM

## CCCCOc1nc2c(s1)-c1ccc([C@H]3CC[C@](N)(COP(=O)(O)O)C3)cc1CC2 [Example 29]
S1P3
  EC50: > 3 µM
S1P1
  S1P1 GTPgS (Ymax): 58%
  EC50: 0.03 µM

## CCCCOCCOc1nc2c(s1)-c1ccc([C@H]3CC[C@](N)(COP(=O)(O)O)C3)cc1CC2 [Example 26, ((1R,3S)-1-amino-3-(2-(2-butoxyethoxy)-4,5-dihydronaphtho[2,1-d]thiazol-7-yl)cyclopentyl)methyl Dihydrogen Phosphate]
S1P3
  EC50: 0.19 µM
S1P1
  S1P1 GTPgS (Ymax): 107%
  EC50: 0.001 µM

## CCCCSc1nc2c(s1)-c1ccc([C@H]3CC[C@](N)(COP(=O)(O)O)C3)cc1CC2 [Example 31, ((1R,3S)-1-amino-3-(2-(butylthio)-4,5-dihydronaphtho[2,1-d]thiazol-7-yl)cyclopentyl)methyl dihydrogen phosphate]
S1P3
  EC50: > 3 µM
S1P1
  S1P1 GTPgS (Ymax): 58%
  EC50: 0.02 µM

## CCCc1nc2c(s1)-c1ccc([C@H]3CC[C@](N)(COP(=O)(O)O)C3)cc1CC2 [Example 28]
S1P3
  EC50: > 3 µM
S1P1
  S1P1 GTPgS (Ymax): 79%
  EC50: 0.019 µM
